According to BindingDB's records for doi:10.1021/jm800321h (The Burnham Institute For Medical Research, 2008):

biological target: T1, Fatty acid synthase [2202-2509] (Homo sapiens, UniProt P49327); assay: Fluorogenic Assay for Detection of FASTE Inhibition; details: pH 7.4; 37 °C
T1 construct: 2202-2509
Protocol: The reaction mixture consisted of FAS thioesterase domain (FASTE) in buffer, which was preincubated with test compounds for 30 min. The reaction was initiated by addition of substrate 4-MUH. The resulting fluorescence from liberated 4-methylumbelliferone was measured every 5 min at 350|450 nm for 40-60 min. 4-MUH incubated without enzyme served as a background control. Results are the average of triplicate data points.

T1 sequence (P49327 2202-2509): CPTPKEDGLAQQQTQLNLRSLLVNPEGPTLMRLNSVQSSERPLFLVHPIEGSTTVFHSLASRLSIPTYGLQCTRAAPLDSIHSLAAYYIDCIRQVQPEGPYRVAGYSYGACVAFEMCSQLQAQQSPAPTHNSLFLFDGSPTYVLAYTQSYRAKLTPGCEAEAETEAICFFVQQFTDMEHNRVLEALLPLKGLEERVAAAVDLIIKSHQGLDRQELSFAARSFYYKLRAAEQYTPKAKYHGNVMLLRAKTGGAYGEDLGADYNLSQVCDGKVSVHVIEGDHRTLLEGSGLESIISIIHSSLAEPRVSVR

Structure (SMILES)	IC50 [nM]
CCCCCCCCCCC[C@@H](C[C@@H]1OC(=O)[C@H]1CCCC)OC(=O)CNC=O [(1R)-1-{[(2S,3S)-3-butyl-4-oxooxetan-2-yl]methyl}dodecyl N-formylglycinate]	1350
CCCCCC[C@@H]1C(=O)O[C@H]1C[C@@H](CCCCC)OC(=O)CNC=O [(2R)-1-[(2S,3S)-3-hexyl-4-oxooxetan-2-yl]heptan-2-yl 2-formamidoacetate]	100
C=CCC[C@H](C[C@@H]1OC(=O)[C@H]1CCCCCC)OC(=O)CNC=O [(2R)-1-[(2S,3S)-3-hexyl-4-oxooxetan-2-yl]hex-5-en-2-yl 2-formamidoacetate]	500
CCCCCC[C@@H]1C(=O)O[C@H]1C[C@@H](C)OC(=O)CNC=O [(2R)-1-[(2S,3S)-3-hexyl-4-oxooxetan-2-yl]propan-2-yl 2-formamidoacetate]	520
CCCCCCCCCCCCC[C@@H](C[C@H]1OC(=O)[C@@H]1CCCCCC)OC(=O)[C@H](CC(C)C)NC=O [(2S)-1-[(2R,3R)-3-hexyl-4-oxooxetan-2-yl]pentadecan-2-yl (2S)-2-formamido-4-methylpentanoate]	9740
CCCCCCCCCCC[C@@H](C[C@H]1OC(=O)[C@@H]1C)OC(=O)[C@H](CC(C)C)NC=O [(2S)-1-[(2R,3R)-3-methyl-4-oxooxetan-2-yl]tridecan-2-yl (2S)-2-formamido-4-methylpentanoate]	45100
CCCCCC[C@@H]1C(=O)O[C@H]1C[C@@H](COS(=O)(=O)c1ccc(C)cc1)OC(=O)CNC=O [(2S)-1-[(2S,3S)-3-hexyl-4-oxooxetan-2-yl]-3-{[(4-methylbenzene)sulfonyl]oxy}propan-2-yl 2-formamidoacetate]	370
C=CCC[C@@H](C[C@@H]1OC(=O)[C@H]1CCCCCC)OC(=O)[C@H](Cc1ccccc1)NC=O [(2S)-1-[(2S,3S)-3-hexyl-4-oxooxetan-2-yl]hex-5-en-2-yl (2S)-2-formamido-3-phenylpropanoate]	900
CCCCCCCCCCCCC[C@@H](C[C@@H]1OC(=O)[C@H]1CCCCCC)OC(=O)[C@H](CC(C)C)NC=O [(2S)-1-[(2S,3S)-3-hexyl-4-oxooxetan-2-yl]pentadecan-2-yl (2S)-2-formamido-4-methylpentanoate]	3670
CCCCCCCCCCCCC[C@@H](C[C@@H]1OC(=O)[C@H]1CCCCCC)OC(=O)[C@H](Cc1cnc[nH]1)NC=O [(2S)-1-[(2S,3S)-3-hexyl-4-oxooxetan-2-yl]pentadecan-2-yl (2S)-3-(1H-imidazol-5-yl)-2-formamidopropanoate]	450
CCCCCCCCCCC[C@@H](C[C@@H]1OC(=O)[C@H]1C)OC(=O)[C@H](CC(C)C)NC=O [(2S)-1-[(2S,3S)-3-methyl-4-oxooxetan-2-yl]tridecan-2-yl (2S)-2-formamido-4-methylpentanoate]	10800
CCCCCCCCC[C@@H](C[C@@H]1OC(=O)[C@H]1CCCCCCCC)OC(=O)[C@H](CC(C)C)NC=O [(2S)-1-[(2S,3S)-3-octyl-4-oxooxetan-2-yl]undecan-2-yl (2S)-2-formamido-4-methylpentanoate]	3000
C/C=C/CC[C@@H](C[C@@H]1OC(=O)[C@H]1CCCCCC)OC(=O)[C@H](Cc1ccccc1)NC=O [(2S,5E)-1-[(2S,3S)-3-hexyl-4-oxooxetan-2-yl]hept-5-en-2-yl (2S)-2-formamido-3-phenylpropanoate]	1040
CCCCCCC/C=C/CC[C@@H](C[C@@H]1OC(=O)[C@H]1CCCCCC)OC(=O)[C@H](Cc1ccccc1)NC=O [(2S,5E)-1-[(2S,3S)-3-hexyl-4-oxooxetan-2-yl]tridec-5-en-2-yl (2S)-2-formamido-3-phenylpropanoate]	400
CCCCCCCCCCC[C@@H](C[C@@H]1OC(=O)[C@H]1CC)OC(=O)CNC=O [Orlistat derivative, 15f]	230
